Measured values reported in patent US6927210B1, “Ectoparasiticidal aqueous suspension formulations of spinosyns” (Eli Lilly and Company, priority 1999, dated 2005).

Test: Solution state of spinosad in dip water
Format: physicochemical
Settings: 5 and 50 ppm
Procedure: Two trials were conducted to determine the degree to which spinosad is removed (stripped) from dip water after dipping sheep. In the trials, spinosad dip tank concentrations of 50 ppm and 5 ppm were prepared from an aqueous suspension containing 25 g/L of spinosad. Both trials involved dipping 10 Dorset-cross shorn sheep in 70 gallons (265 liters) of treated water. Each animal was dipped for 30 seconds duration, with the head immersed twice. Samples of dip water were taken for HPLC analysis, initially and after each sheep was dipped. The pH of the water was also determined after each animal was dipped. A dip tank concentration of 5 ppm of spinosad should provide lice control on sheep.

spinosad
Solution state in dip water (in words): in true solution at 5 and 50 ppm concentration
